From US8153400B1, “Nucleic acids encoding a mutT domain-containing polypeptide” (Beth Israel Deaconess Medical Center, Inc., priority 1999, dated 2012)
“Also recorded” adds a separate entry of the source. Blank lines part the entries; values can stand above or below the compound they belong to.

Assays:
TrpC7 = molecular target: T1, TrpC7 (Homo sapiens, UniProt O94759, Q1189R); assay: Whole-cell patch-clamp of membrane currents in tetracycline-inducible HEK293 cells expressing FLAG-TrpC7; type: cell-based; conditions: for gating of TrpC7 / induced plasma membrane currents: 100 μM in patch pipette, currents at -80 mV; for gating of TrpC7 / induced plasma membrane currents / gating of TrpC7: after tetracycline induction
T1 construct: expressed in transfected cells; host or cells: HEK293 cells expressing the tetracycline repressor (pcDNA6/TR); construct in pcDNA4/TO
T1 sequence (O94759 3-1503 Q1189R): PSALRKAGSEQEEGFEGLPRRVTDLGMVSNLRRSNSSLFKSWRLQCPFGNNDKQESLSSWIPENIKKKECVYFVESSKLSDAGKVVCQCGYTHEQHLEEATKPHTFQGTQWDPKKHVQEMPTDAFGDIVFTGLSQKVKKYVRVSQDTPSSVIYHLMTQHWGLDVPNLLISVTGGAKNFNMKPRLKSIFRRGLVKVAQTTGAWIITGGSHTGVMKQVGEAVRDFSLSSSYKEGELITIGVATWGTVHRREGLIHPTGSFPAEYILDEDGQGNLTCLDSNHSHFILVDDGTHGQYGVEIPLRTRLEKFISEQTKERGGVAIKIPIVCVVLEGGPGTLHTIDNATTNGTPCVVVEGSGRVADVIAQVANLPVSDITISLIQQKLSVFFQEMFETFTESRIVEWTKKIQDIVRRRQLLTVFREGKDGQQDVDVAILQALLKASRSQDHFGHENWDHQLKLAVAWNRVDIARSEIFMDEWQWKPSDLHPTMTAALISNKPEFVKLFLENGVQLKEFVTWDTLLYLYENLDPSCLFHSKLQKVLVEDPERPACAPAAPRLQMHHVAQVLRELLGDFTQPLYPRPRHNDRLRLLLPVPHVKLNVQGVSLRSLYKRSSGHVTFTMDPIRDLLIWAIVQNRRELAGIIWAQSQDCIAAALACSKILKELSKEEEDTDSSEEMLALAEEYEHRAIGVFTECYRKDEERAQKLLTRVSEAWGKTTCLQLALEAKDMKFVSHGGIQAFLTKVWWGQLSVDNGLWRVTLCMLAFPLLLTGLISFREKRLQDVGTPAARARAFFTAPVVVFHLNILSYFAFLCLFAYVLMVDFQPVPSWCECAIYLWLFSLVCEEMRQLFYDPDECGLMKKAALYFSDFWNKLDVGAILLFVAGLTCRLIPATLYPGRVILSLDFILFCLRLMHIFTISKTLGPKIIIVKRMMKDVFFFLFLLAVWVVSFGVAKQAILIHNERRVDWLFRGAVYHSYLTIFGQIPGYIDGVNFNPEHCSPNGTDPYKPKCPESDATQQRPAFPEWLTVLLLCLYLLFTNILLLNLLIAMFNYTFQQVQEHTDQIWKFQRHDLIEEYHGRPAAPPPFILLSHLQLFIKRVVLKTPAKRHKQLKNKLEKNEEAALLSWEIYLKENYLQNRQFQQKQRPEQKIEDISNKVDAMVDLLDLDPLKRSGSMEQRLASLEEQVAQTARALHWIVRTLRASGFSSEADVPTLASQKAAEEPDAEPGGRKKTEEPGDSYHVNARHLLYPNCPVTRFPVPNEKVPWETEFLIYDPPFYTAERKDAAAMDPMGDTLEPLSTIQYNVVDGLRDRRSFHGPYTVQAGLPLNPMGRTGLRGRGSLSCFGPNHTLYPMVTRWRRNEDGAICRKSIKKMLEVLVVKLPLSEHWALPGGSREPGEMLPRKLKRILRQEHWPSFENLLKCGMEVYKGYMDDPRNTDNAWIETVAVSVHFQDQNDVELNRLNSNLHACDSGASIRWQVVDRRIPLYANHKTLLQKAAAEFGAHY
Procedure: Wild type and tetracycline-inducible HEK293 FLAG-TrpC7 expressing cells were cultured at 37° C./5% CO2 in DMEM supplemented with 10% FBS and 2 mM glutamine. The medium was supplemented with blasticidin (5 μg/ml; Invitrogen) and zeocin (0.4 mg/ml; Invitrogen). Cells were resuspended in media containing 1 μg/ml tetracycline (Invitrogen) 24 hours before patch-clamp experiments.
For patch-clamp experiments, coverslips were transferred to the recording chamber and kept in a standard modified Ringer's solution of the following composition (in mM): NaCl 145, KCl 2.8, CaCl2 1, MgCl2 2, glucose 10, Hepes-NaOH 10, pH 7.2. Intracellular pipette-filling solutions contained (in mM): Cs-glutamate 145, NaCl 8, MgCl2 1, Cs-BAPTA 10, pH 7.2 adjusted with CsOH. […] The agonists were dissolved in the standard intracellular solution. Ionomycin (Sigma) was added to the extracellular standard solution.
Patch-clamp experiments were performed in the tight-seal whole-cell configuration at 21-25° C. High-resolution current recordings were acquired by a computer-based patch-clamp amplifier system (EPC-9, HEKA, Lambrecht, Germany). […] Immediately following establishment of the whole-cell configuration, voltage ramps of 50 ms duration spanning the voltage range of −100 to +100 mV were delivered from a holding potential of 0 mV at a rate of 0.5 Hz over a period of 200 to 400 seconds. All voltages were corrected for a liquid junction potential of 10 mV between external and internal solutions. Currents were filtered at 2.9 kHz and digitized at 100 μs intervals. Capacitive currents and series resistance were determined and corrected before each voltage ramp using the automatic capacitance compensation of the EPC-9. For analysis, the very first ramps were digitally filtered at 2 kHz, pooled and used for leak-subtraction of all subsequent current records. The low-resolution temporal development of currents at a given potential was extracted from the leak-corrected individual ramp current records by measuring the current amplitudes at voltages of −80 mV or +80 mV.

[1] = molecular target: T2, TrpC7 NUDT9 homology region (Homo sapiens, UniProt O94759); assay: Nudix type enzyme assay (ADP-ribose hydrolysis, liberated orthophosphate), TrpC7 NUDT9 homology region; type: biochemical; conditions: ADP-ribose as substrate
T2 construct: an NcoI site, an artificial start codon, amino acids 1197-1503, a stop codon, and a 3′ NotI site; Met from artificial start codon (N); made in house; host or cells: E. coli BL21 (DE3), pET-24d
T2 sequence (O94759 1197-1503): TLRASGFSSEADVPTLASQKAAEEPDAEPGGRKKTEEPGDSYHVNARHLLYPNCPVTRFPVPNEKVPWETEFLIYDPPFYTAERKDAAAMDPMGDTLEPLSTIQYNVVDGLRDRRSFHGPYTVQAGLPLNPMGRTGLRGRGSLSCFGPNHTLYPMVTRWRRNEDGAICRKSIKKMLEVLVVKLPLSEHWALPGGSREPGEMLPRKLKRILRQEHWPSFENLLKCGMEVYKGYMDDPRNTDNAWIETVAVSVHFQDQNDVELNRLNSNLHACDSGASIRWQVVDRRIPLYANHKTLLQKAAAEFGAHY
Procedure: (§1) BL21 (DE3) cells containing the respective expression plasmids were grown at 37° C. in LB broth on a shaker to an A600 of about 0.6 and induced by the addition of isopropyl-β-D-thiogalactopyranoside to a concentration of 1 mM. The cells were allowed to grow for an additional 4 h, harvested, washed by suspension in isotonic saline, centrifuged in pre-weighed centrifuge tubes, and the packed cells were stored at −80° C. […] In the case of NUDT9, enzyme was extracted in the freeze-thaw fraction and ammonium sulfate was added to 35% final concentration. The precipitate was discarded after centrifugation and ammonium sulfate was added to the supernatant to a final concentration of 50%. The precipitate was collected by centrifugation, dissolved then chromatographed, then chromatographed on a gel filtration column (Sephadex G-100). […]
(§2) Enzyme Assay—Enzyme velocities were quantified by measuring the conversion of a phosphatase-insensitive substrate, ADP-ribose, to the phosphatase-sensitive products, AMP and ribose-5-phosphate. The liberated inorganic orthophosphate was measured by the procedure of Ames and Dubin (Ames, B. N., and Dubin, D. T., J. Biol. Chem. 1960, 235:769-775). […] After 30 min at 37° C., the reaction was terminated by the addition of EDTA and inorganic orthophosphate was measured.
(§3) Km and Vmax were calculated by non-linear regression analysis of Lineweaver-Burke plots.

NUDT9 (mutTCCH-1) = molecular target: T3, NUDT9 (mutTCCH-1) (Homo sapiens, UniProt Q9BW91); assay: Nudix type enzyme assay, substrate screen with recombinant NUDT9; type: biochemical; conditions: panel of nucleoside diphosphate derivatives; products AMP and ribose-5-phosphate
T3 construct: made in house; host or cells: E. coli BL21 (DE3), pET-24d
T3 sequence (Q9BW91 47-350): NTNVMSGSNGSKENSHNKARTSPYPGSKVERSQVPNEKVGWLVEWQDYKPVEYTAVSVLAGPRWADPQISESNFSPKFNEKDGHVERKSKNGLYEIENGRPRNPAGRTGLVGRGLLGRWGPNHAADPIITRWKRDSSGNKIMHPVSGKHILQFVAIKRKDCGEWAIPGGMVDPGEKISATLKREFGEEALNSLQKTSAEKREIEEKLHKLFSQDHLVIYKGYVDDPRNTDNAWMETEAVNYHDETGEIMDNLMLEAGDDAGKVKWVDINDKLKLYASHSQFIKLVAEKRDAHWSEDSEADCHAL
Procedure: as §1, §2, §3

[2] = system: non-selective plasma membrane ion channel in ascidian oocytes; conditions: cited from earlier work
[3] = intracellular perfusion, current magnitude and latency

SMILES: Nc1ncnc2c1ncn2[C@@H]1O[C@H](COP(=O)(O)OP(=O)(O)O[C@H]2O[C@H](CO)[C@@H](O)[C@H](O)[C@H]2O)[C@@H](O)[C@H]1O [ADP-glucose]
gating of TrpC7 / induced plasma membrane currents (TrpC7): no detectable gating

SMILES: Nc1ncnc2c1ncn2[C@@H]1O[C@H](COP(=O)(O)OP(=O)(O)O[C@H]2O[C@H](CO)[C@@H](O)[C@H](O)[C@@H]2O)[C@@H](O)[C@H]1O [ADP-mannose]
gating of TrpC7 / induced plasma membrane currents (TrpC7): no detectable gating

SMILES: Nc1ncnc2c1ncn2[C@@H]1O[C@H](COP(=O)(O)OP(=O)(O)OC[C@H]2OC(O)[C@H](O)[C@@H]2O)[C@@H](O)[C@H]1O (some centres unmarked) [ADP-ribose, Adenosine 5-diphospho (ADP)-ribose]
gating of TrpC7 / induced plasma membrane currents (TrpC7): extremely large currents are induced; also recorded: large inward currents | currents induced by intracellular perfusion (TrpC7; 300 μM, tetracycline-induced cells, -80 mV and +80 mV): almost linear cationic currents with slight outward rectification | concentration at which TrpC7 activation begins to occur (TrpC7; [3]): 60-100 μLM | concentration at which TrpC7 activation saturates (TrpC7; [3]): around 300 μM | Kd (TrpC7; peak current amplitudes at -80 mV, 10 μM to 1 mM, read-out: apparent KD of dose-response curve for gating of TrpC7): 90 µM | effect on plasma membrane currents (TrpC7; without tetracycline induction (no FLAG-TrpC7 expression)): no detectable effect | activity relative to that observed for NUDT9 [1]: approximately 1% | Vmax (specific activity) ([1]; E. coli expressed protein): 0.1 μmol/min/mg protein | substrate specificity of recombinant NUDT9 (NUDT9 (mutTCCH-1)): highly specific ADP-ribose pyrophosphatase | concentration that gates the currents [2]: ≥ 10 nM

SMILES: Nc1nc2c(ncn2[C@@H]2O[C@H](COP(=O)(O)OP(=O)(O)O[C@H]3O[C@H](CO)[C@@H](O)[C@H](O)[C@H]3O)[C@@H](O)[C@H]2O)c(=O)[nH]1 [GDP-glucose, guanosine 5-diphospho (GDP)-glucose]
gating of TrpC7 / induced plasma membrane currents (TrpC7): no detectable gating

SMILES: Nc1nc2c(ncn2[C@@H]2O[C@H](COP(=O)(O)OP(=O)(O)O[C@H]3O[C@H](CO)[C@@H](O)[C@H](O)[C@@H]3O)[C@@H](O)[C@H]2O)c(=O)[nH]1 [GDP-mannose]
gating of TrpC7 / induced plasma membrane currents (TrpC7): no detectable gating

gating of TrpC7 / induced plasma membrane currents (TrpC7): no detectable gating
SMILES: N=c1c2ncn3c2ncn1[C@@H]1O[C@H](COP(=O)(O)OP(=O)(O)OC[C@H]2O[C@@H]3[C@H](O)[C@@H]2O)[C@@H](O)[C@H]1O [cyclic ADP-ribose, cyclic ADP-Ribose]

gating of TrpC7 (TrpC7; 20 μM in patch pipette): no detectable gating
SMILES: O=P(O)(O)O[C@@H]1[C@H](O)[C@H](O)[C@@H](OP(=O)(O)O)[C@H](OP(=O)(O)O)[C@H]1O [inositol-1,4,5-trisphosphate, inositol 1,4,5-trisphosphate]

SMILES: C[C@H](CCC(=O)O)C[C@H](C)C[C@H](C)C(=O)/C=C(\O)[C@H](C)C[C@H](C)C/C=C/[C@@H](C)[C@@H](O)[C@@H](C)[C@@H](O)C[C@@H]1CC[C@@](C)([C@H]2CC[C@@](C)([C@@H](C)O)O2)O1 [ionomycin, Ionomycin]
gating of TrpC7 (TrpC7; 10 μM, added to the extracellular solution): no detectable gating
